Values of other authors in PubChem BioAssay AID1259409 (Chemical Carcinogenesis Research Information System (CCRIS), 2018).

Test system: rodent chemically induced tumor inhibition, incidence and multiplicity
Assay: CCRIS tumor inhibitor studies

## CC1=C(/C=C/C(C)=C/C=C/C(C)=C/C(=O)Nc2ccc(O)cc2)C(C)(C)CCC1
Carcinogen: 7,12-DIMETHYLBENZ[A]ANTHRACENE, 57-97-6, Dose [Inhibitor]: 1.5 MMOL/KG CHOW DIET IN 25 ML OF THE VEHICLE (ETHANOL/TRICAPRYLIN 1:4 (VOL/VOL) PLUS 6% (WT/VOL) ALPHA-TOCOPHEROL) BEGI, Route [Inhibitor]: ORAL, Species: RAT, Strain/Sex: SPRAGUE-DAWLEY/FEMALE, Target Tissue: Type of Lesion: MAMMARY GLAND: TUMOR, Dose [Carcinogen]: 75 MG/KG BW IN 1.0 ML SESAME OIL ONCE, Promoter: NONE USED
  tumour outcome (control, treated, inhibition, significance): 70%, 30%, 57%, not significant
Carcinogen: 7,12-DIMETHYLBENZ[A]ANTHRACENE, 57-97-6, Dose [Inhibitor]: 2 MMOL/KG DIET DAILY FROM 10 D THROUGH 12 WK AFTER CARCINOGEN DOSE FOLLOWED BY 16 WK OBSERVATION PERIOD (STUDY DURATION:, Route [Inhibitor]: ORAL, Species: RAT, Strain/Sex: SPRAGUE-DAWLEY/FEMALE, Target Tissue: Type of Lesion: MAMMARY GLAND: TUMOR, Dose [Carcinogen]: 10 MG/RAT ONCE, Promoter: NONE USED
  tumour outcome (control, treated, inhibition, significance): 8/15 (53%), 7/15 (47%), 11%, not significant
Carcinogen: 7,12-DIMETHYLBENZ[A]ANTHRACENE, 57-97-6, Dose [Inhibitor]: 2 MMOL/KG DIET DAILY FROM 29 D PRIOR THROUGH 12 WK AFTER CARCINOGEN DOSE FOLLOWED BY 16 WK OBSERVATION PERIOD (STUDY DUR, Route [Inhibitor]: ORAL, Species: RAT, Strain/Sex: SPRAGUE-DAWLEY/FEMALE, Target Tissue: Type of Lesion: MAMMARY GLAND: TUMOR, Dose [Carcinogen]: 10 MG/RAT ONCE, Promoter: NONE USED
  tumour outcome (control, treated, inhibition, significance): 8/15 (53%), 9/15 (60%), -13%, not significant
Carcinogen: DIETHYLNITROSAMINE [55-18-5], Dose [Inhibitor]: 280 NM/100 G BW WK FOR 3 WK BETWEEN 4TH AND 25TH WK AFTER CARCINOGEN (STUDY DURATION: 50 WK), Route [Inhibitor]: IP INJECTION, Species: RAT, Strain/Sex: F344/MALE, Target Tissue: Type of Lesion: LIVER: HEPATOCELLULAR CARCINOMA, Dose [Carcinogen]: 150 MG/KG ONCE, Promoter: 2-ACETYLAMINOFLUORENE [53-96-3]
  tumour outcome (control, treated, inhibition, significance): 14/18 (78%), 6/20 (30%), 62%, p= 0.0044
Carcinogen: DIETHYLNITROSAMINE, 55-18-5, Dose [Inhibitor]: 0, 98 MG/KG DIET FOR DURATION OF STUDY BEGINNING 1 WK PRIOR TO CARCINOGEN TREATMENT (STUDY DURATION: 25 WK), Route [Inhibitor]: ORAL, Species: HAMSTER, Strain/Sex: SYRIAN/MALE, Target Tissue: Type of Lesion: LUNG: CARCINOMA, Dose [Carcinogen]: 17.8 MG/KG BW 2/WK FOR 20 WK, Promoter: NONE USED
  tumour outcome (control, treated, inhibition, significance): 50%, 45%, 10%, not significant
Carcinogen: DIETHYLNITROSAMINE, 55-18-5, Dose [Inhibitor]: 0, 98 MG/KG DIET FOR DURATION OF STUDY BEGINNING 1 WK PRIOR TO CARCINOGEN TREATMENT (STUDY DURATION: 25 WK), Route [Inhibitor]: ORAL, Species: HAMSTER, Strain/Sex: SYRIAN/MALE, Target Tissue: Type of Lesion: TRACHEA: PAPILLOMA, Dose [Carcinogen]: 17.8 MG/KG BW 2/WK FOR 20 WK, Promoter: NONE USED
  tumour outcome (control, treated, inhibition, significance): 95%, 95%, 0%, not significant
Carcinogen: DIETHYLNITROSAMINE, 55-18-5, Dose [Inhibitor]: 0, 196 MG/KG DIET FOR DURATION OF STUDY BEGINNING 1 WK PRIOR TO CARCINOGEN TREATMENT (STUDY DURATION: 25 WK), Route [Inhibitor]: ORAL, Species: HAMSTER, Strain/Sex: SYRIAN/MALE, Target Tissue: Type of Lesion: LUNG: CARCINOMA, Dose [Carcinogen]: 17.8 MG/KG BW 2/WK FOR 20 WK, Promoter: NONE USED
  tumour outcome (control, treated, inhibition, significance): 60%, 50%, 17%, not significant
Carcinogen: DIETHYLNITROSAMINE, 55-18-5, Dose [Inhibitor]: 0, 196 MG/KG DIET FOR DURATION OF STUDY BEGINNING 1 WK PRIOR TO CARCINOGEN TREATMENT (STUDY DURATION: 25 WK), Route [Inhibitor]: ORAL, Species: HAMSTER, Strain/Sex: SYRIAN/MALE, Target Tissue: Type of Lesion: TRACHEA: PAPILLOMA, Dose [Carcinogen]: 17.8 MG/KG BW 2/WK FOR 20 WK, Promoter: NONE USED
  tumour outcome (control, treated, inhibition, significance): 100%, 100%, 0%, not significant
Carcinogen: DIMETHYLBENZ[A]ANTHRACENE, 57-97-6, Dose [Inhibitor]: 0, 782 MG/KG DIET IN VEHICLE 2 MO PRIOR TO CARCINOGEN DOSE AND CONTINUED UNTIL CARCINOGEN ADMINISTRATION (STUDY DURATION, Route [Inhibitor]: ORAL, Species: RAT, Strain/Sex: CD-1/FEMALE, Target Tissue: Type of Lesion: MAMMARY GLAND: ADENOCARCINOMA, Dose [Carcinogen]: 20 MG IN 1 ML SESAME OIL ONCE, Promoter: NONE USED
  tumour outcome (control, treated, inhibition, significance): 63%, 71%, -13%, not calculated
Carcinogen: DIMETHYLBENZ[A]ANTHRACENE, 57-97-6, Dose [Inhibitor]: 0, 782 MG/KG DIET IN VEHICLE 2 MO PRIOR TO CARCINOGEN DOSE AND CONTINUED UNTIL CARCINOGEN ADMINISTRATION (STUDY DURATION, Route [Inhibitor]: ORAL, Species: RAT, Strain/Sex: CD-1/FEMALE, Target Tissue: Type of Lesion: MAMMARY GLAND: ADENOMA, Dose [Carcinogen]: 20 MG IN 1 ML SESAME OIL ONCE, Promoter: NONE USED
  tumour outcome (control, treated, inhibition, significance): 17%, 43%), -153%, not calculated
Carcinogen: METHYLNITROSOUREA, 684-93-5, Dose [Inhibitor]: 0, 782 MG/KG DIET IN VEHICLE 2 MO PRIOR TO CARCINOGEN DOSE AND CONTINUED FOR STUDY DURATION (STUDY DURATION: 8 MO), Route [Inhibitor]: ORAL, Species: RAT, Strain/Sex: CD-1/FEMALE, Target Tissue: Type of Lesion: MAMMARY GLAND: ADENOCARCINOMA, Dose [Carcinogen]: 50 MG/KG BW ONCE, Promoter: NONE USED
  tumour outcome (control, treated, inhibition, significance): 57%, 23%, 60%, p<0.05
Carcinogen: METHYLNITROSOUREA, 684-93-5, Dose [Inhibitor]: 0, 782 MG/KG DIET IN VEHICLE 2 MO PRIOR TO CARCINOGEN DOSE AND CONTINUED FOR STUDY DURATION (STUDY DURATION: 8 MO), Route [Inhibitor]: ORAL, Species: RAT, Strain/Sex: CD-1/FEMALE, Target Tissue: Type of Lesion: MAMMARY GLAND: BENIGN TUMOR, Dose [Carcinogen]: 50 MG/KG BW ONCE, Promoter: NONE USED
  tumour outcome (control, treated, inhibition, significance): 10%, 3%, 70%, not calculated
Carcinogen: METHYLNITROSOUREA, 684-93-5, Dose [Inhibitor]: 0, 782 MG/KG DIET IN VEHICLE 2 MO PRIOR TO CARCINOGEN DOSE AND CONTINUED UNTIL CARCINOGEN ADMINISTRATION (STUDY DURATION, Route [Inhibitor]: ORAL, Species: RAT, Strain/Sex: CD-1/FEMALE, Target Tissue: Type of Lesion: MAMMARY GLAND: ADENOCARCINOMA, Dose [Carcinogen]: 50 MG/KG BW ONCE, Promoter: NONE USED
  tumour outcome (control, treated, inhibition, significance): 57%, 66%, -16%, not calculated
